From the supplement of paper PMC10307832

Tests used:
Assay in all cases: relative viability (nuclei count vs DMSO), 5 days (fraction); higher = more cells survive
QS11 + Bortezomib = compound: C1CC2=C(C1)C=C(C=C2)OC3=NC(=C4C(=N3)N(C=N4)CC5=CC=C(C=C5)C6=CC=CC=C6)N[C@@H](CC7=CC=CC=C7)CO [QS11] + CC(C)C[C@H](NC(=O)[C@H](Cc1ccccc1)NC(=O)c1cnccn1)B(O)O [Bortezomib] (partner 0.002 µM)
In short: (§1)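 Lung cancer cell lines were pin-tool dosed in 1536-well plates on the day after seeding, with either a lone drug or a fixed anchor-drug dose plus five library-drug doses (not always all listed) in √10 steps. Nuclei were counted on 4× images after 5 days. Relative viability is the ratio of treated-well to vehicle-well nuclei counts, with each value a median of duplicate plates.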

QS11 + Pictilisib = compound: C1CC2=C(C1)C=C(C=C2)OC3=NC(=C4C(=N3)N(C=N4)CC5=CC=C(C=C5)C6=CC=CC=C6)N[C@@H](CC7=CC=CC=C7)CO [QS11] + CS(=O)(=O)N1CCN(Cc2cc3nc(-c4cccc5[nH]ncc45)nc(N4CCOCC4)c3s2)CC1 [Pictilisib] (partner 1 µM)
In short: as §1

AZ628 + Phenformin = compound: CC1=C(C=C(C=C1)NC(=O)C2=CC(=CC=C2)C(C)(C)C#N)NC3=CC4=C(C=C3)N=CN(C4=O)C [AZ628] + N=C(N)NC(=N)NCCc1ccccc1 [Phenformin] (partner 250 µM)
In short: as §1

AZ628 + Decitabine = compound: CC1=C(C=C(C=C1)NC(=O)C2=CC(=CC=C2)C(C)(C)C#N)NC3=CC4=C(C=C3)N=CN(C4=O)C [AZ628] + Nc1ncn([C@H]2C[C@H](O)[C@@H](CO)O2)c(=O)n1 [Decitabine] (partner 2 µM)
In short: as §1

NCI-H2085
relative viability (QS11 + Bortezomib; first compound 0.08 µM): 0.952 | relative viability (QS11 + Bortezomib; first compound 0.253 µM): 1.03 | relative viability (QS11 + Bortezomib; first compound 0.8 µM): 1.16 | relative viability (QS11 + Bortezomib; first compound 2.53 µM): 1.06 | relative viability (QS11 + Bortezomib; first compound 8 µM): 1 | relative viability (QS11 + Pictilisib; first compound 0.08 µM): 0.432 | relative viability (QS11 + Pictilisib; first compound 0.253 µM): 0.404 | relative viability (QS11 + Pictilisib; first compound 0.8 µM): 0.456 | relative viability (QS11 + Pictilisib; first compound 2.53 µM): 0.432 | relative viability (QS11 + Pictilisib; first compound 8 µM): 0.519 | relative viability (AZ628 + Phenformin; first compound 0.08 µM): 0.83 | relative viability (AZ628 + Phenformin; first compound 0.253 µM): 0.662 | relative viability (AZ628 + Phenformin; first compound 0.8 µM): 0.784 | relative viability (AZ628 + Phenformin; first compound 2.53 µM): 0.636 | relative viability (AZ628 + Phenformin; first compound 8 µM): 0.583 | relative viability (AZ628 + Decitabine; first compound 0.08 µM): 0.534 | relative viability (AZ628 + Decitabine; first compound 0.253 µM): 0.563 | relative viability (AZ628 + Decitabine; first compound 0.8 µM): 0.569 | relative viability (AZ628 + Decitabine; first compound 2.53 µM): 0.575 | relative viability (AZ628 + Decitabine; first compound 8 µM): 0.609

NCI-H1666
relative viability (QS11 + Bortezomib; first compound 0.08 µM): 0.83 | relative viability (QS11 + Bortezomib; first compound 0.253 µM): 0.722 | relative viability (QS11 + Bortezomib; first compound 0.8 µM): 0.74 | relative viability (QS11 + Bortezomib; first compound 2.53 µM): 0.719 | relative viability (QS11 + Bortezomib; first compound 8 µM): 0.564 | relative viability (QS11 + Pictilisib; first compound 0.08 µM): 0.328 | relative viability (QS11 + Pictilisib; first compound 0.253 µM): 0.359 | relative viability (QS11 + Pictilisib; first compound 0.8 µM): 0.377 | relative viability (QS11 + Pictilisib; first compound 2.53 µM): 0.474 | relative viability (QS11 + Pictilisib; first compound 8 µM): 0.423 | relative viability (AZ628 + Phenformin; first compound 0.08 µM): 0.584 | relative viability (AZ628 + Phenformin; first compound 0.253 µM): 0.582 | relative viability (AZ628 + Phenformin; first compound 0.8 µM): 0.543 | relative viability (AZ628 + Phenformin; first compound 2.53 µM): 0.518 | relative viability (AZ628 + Phenformin; first compound 8 µM): 0.514 | relative viability (AZ628 + Decitabine; first compound 0.08 µM): 0.744 | relative viability (AZ628 + Decitabine; first compound 0.253 µM): 0.691 | relative viability (AZ628 + Decitabine; first compound 0.8 µM): 0.625 | relative viability (AZ628 + Decitabine; first compound 2.53 µM): 0.62 | relative viability (AZ628 + Decitabine; first compound 8 µM): 0.657

NCI-H1650
relative viability (QS11 + Bortezomib; first compound 0.08 µM): 0.183 | relative viability (QS11 + Bortezomib; first compound 0.253 µM): 0.215 | relative viability (QS11 + Bortezomib; first compound 0.8 µM): 0.18 | relative viability (QS11 + Bortezomib; first compound 2.53 µM): 0.197 | relative viability (QS11 + Bortezomib; first compound 8 µM): 0.186 | relative viability (QS11 + Pictilisib; first compound 0.08 µM): 0.671 | relative viability (QS11 + Pictilisib; first compound 0.253 µM): 0.458 | relative viability (QS11 + Pictilisib; first compound 0.8 µM): 0.584 | relative viability (QS11 + Pictilisib; first compound 2.53 µM): 0.584 | relative viability (QS11 + Pictilisib; first compound 8 µM): 0.524 | relative viability (AZ628 + Phenformin; first compound 0.08 µM): 0.537 | relative viability (AZ628 + Phenformin; first compound 0.253 µM): 0.403 | relative viability (AZ628 + Phenformin; first compound 0.8 µM): 0.33 | relative viability (AZ628 + Phenformin; first compound 2.53 µM): 0.333 | relative viability (AZ628 + Phenformin; first compound 8 µM): 0.335 | relative viability (AZ628 + Decitabine; first compound 0.08 µM): 0.586 | relative viability (AZ628 + Decitabine; first compound 0.253 µM): 0.485 | relative viability (AZ628 + Decitabine; first compound 0.8 µM): 0.429 | relative viability (AZ628 + Decitabine; first compound 2.53 µM): 0.382 | relative viability (AZ628 + Decitabine; first compound 8 µM): 0.615

NCI-H647
relative viability (QS11 + Bortezomib; first compound 0.08 µM): 0.938 | relative viability (QS11 + Bortezomib; first compound 0.253 µM): 0.987 | relative viability (QS11 + Bortezomib; first compound 0.8 µM): 0.976 | relative viability (QS11 + Bortezomib; first compound 2.53 µM): 1.08 | relative viability (QS11 + Bortezomib; first compound 8 µM): 0.894 | relative viability (QS11 + Pictilisib; first compound 0.253 µM): 0.379 | relative viability (QS11 + Pictilisib; first compound 0.8 µM): 0.41 | relative viability (QS11 + Pictilisib; first compound 2.53 µM): 0.685 | relative viability (QS11 + Pictilisib; first compound 8 µM): 0.478 | relative viability (AZ628 + Phenformin; first compound 0.08 µM): 0.695 | relative viability (AZ628 + Phenformin; first compound 0.253 µM): 0.525 | relative viability (AZ628 + Phenformin; first compound 0.8 µM): 0.467 | relative viability (AZ628 + Phenformin; first compound 2.53 µM): 0.323 | relative viability (AZ628 + Phenformin; first compound 8 µM): 0.405 | relative viability (AZ628 + Decitabine; first compound 0.08 µM): 0.383 | relative viability (AZ628 + Decitabine; first compound 0.253 µM): 0.452 | relative viability (AZ628 + Decitabine; first compound 0.8 µM): 0.329 | relative viability (AZ628 + Decitabine; first compound 2.53 µM): 0.383 | relative viability (AZ628 + Decitabine; first compound 8 µM): 0.332

A-427
relative viability (QS11 + Bortezomib; first compound 0.08 µM): 0.852 | relative viability (QS11 + Bortezomib; first compound 0.253 µM): 0.96 | relative viability (QS11 + Bortezomib; first compound 2.53 µM): 0.999 | relative viability (QS11 + Bortezomib; first compound 8 µM): 0.858 | relative viability (QS11 + Pictilisib; first compound 0.08 µM): 0.546 | relative viability (QS11 + Pictilisib; first compound 0.253 µM): 0.788 | relative viability (QS11 + Pictilisib; first compound 2.53 µM): 0.608 | relative viability (QS11 + Pictilisib; first compound 8 µM): 0.824 | relative viability (AZ628 + Phenformin; first compound 0.08 µM): 0.207 | relative viability (AZ628 + Phenformin; first compound 0.253 µM): 0.242 | relative viability (AZ628 + Phenformin; first compound 0.8 µM): 0.25 | relative viability (AZ628 + Phenformin; first compound 2.53 µM): 0.245 | relative viability (AZ628 + Phenformin; first compound 8 µM): 0.181 | relative viability (AZ628 + Decitabine; first compound 0.08 µM): 0.58 | relative viability (AZ628 + Decitabine; first compound 0.253 µM): 0.582 | relative viability (AZ628 + Decitabine; first compound 0.8 µM): 0.494 | relative viability (AZ628 + Decitabine; first compound 2.53 µM): 0.52 | relative viability (AZ628 + Decitabine; first compound 8 µM): 0.451

NCI-H1915
relative viability (QS11 + Bortezomib; first compound 0.08 µM): 0.985 | relative viability (QS11 + Bortezomib; first compound 0.253 µM): 1.08 | relative viability (QS11 + Bortezomib; first compound 2.53 µM): 0.967 | relative viability (QS11 + Bortezomib; first compound 8 µM): 0.979 | relative viability (QS11 + Pictilisib; first compound 0.08 µM): 0.958 | relative viability (QS11 + Pictilisib; first compound 0.253 µM): 0.932 | relative viability (QS11 + Pictilisib; first compound 2.53 µM): 0.896 | relative viability (QS11 + Pictilisib; first compound 8 µM): 0.937 | relative viability (AZ628 + Phenformin; first compound 0.08 µM): 0.404 | relative viability (AZ628 + Phenformin; first compound 0.253 µM): 0.388 | relative viability (AZ628 + Phenformin; first compound 0.8 µM): 0.374 | relative viability (AZ628 + Phenformin; first compound 2.53 µM): 0.351 | relative viability (AZ628 + Phenformin; first compound 8 µM): 0.233 | relative viability (AZ628 + Decitabine; first compound 0.08 µM): 0.271 | relative viability (AZ628 + Decitabine; first compound 0.253 µM): 0.259 | relative viability (AZ628 + Decitabine; first compound 0.8 µM): 0.267 | relative viability (AZ628 + Decitabine; first compound 2.53 µM): 0.254 | relative viability (AZ628 + Decitabine; first compound 8 µM): 0.169

NCI-H1355
relative viability (QS11 + Bortezomib; first compound 0.08 µM): 1.2 | relative viability (QS11 + Bortezomib; first compound 0.253 µM): 1.19 | relative viability (QS11 + Bortezomib; first compound 0.8 µM): 0.862 | relative viability (QS11 + Bortezomib; first compound 2.53 µM): 1.21 | relative viability (QS11 + Bortezomib; first compound 8 µM): 1.13 | relative viability (QS11 + Pictilisib; first compound 0.08 µM): 0.399 | relative viability (QS11 + Pictilisib; first compound 0.253 µM): 0.299 | relative viability (QS11 + Pictilisib; first compound 0.8 µM): 0.378 | relative viability (QS11 + Pictilisib; first compound 2.53 µM): 0.475 | relative viability (QS11 + Pictilisib; first compound 8 µM): 0.443 | relative viability (AZ628 + Phenformin; first compound 0.08 µM): 0.502 | relative viability (AZ628 + Phenformin; first compound 0.253 µM): 0.444 | relative viability (AZ628 + Phenformin; first compound 0.8 µM): 0.431 | relative viability (AZ628 + Phenformin; first compound 2.53 µM): 0.411 | relative viability (AZ628 + Phenformin; first compound 8 µM): 0.39 | relative viability (AZ628 + Decitabine; first compound 0.08 µM): 0.414 | relative viability (AZ628 + Decitabine; first compound 0.253 µM): 0.322 | relative viability (AZ628 + Decitabine; first compound 0.8 µM): 0.381 | relative viability (AZ628 + Decitabine; first compound 2.53 µM): 0.344 | relative viability (AZ628 + Decitabine; first compound 8 µM): 0.265

HCC-15
relative viability (QS11 + Bortezomib; first compound 0.08 µM): 1.06 | relative viability (QS11 + Bortezomib; first compound 0.253 µM): 1.16 | relative viability (QS11 + Bortezomib; first compound 2.53 µM): 1.03 | relative viability (QS11 + Bortezomib; first compound 8 µM): 0.982 | relative viability (QS11 + Pictilisib; first compound 0.08 µM): 0.732 | relative viability (QS11 + Pictilisib; first compound 0.253 µM): 0.868 | relative viability (QS11 + Pictilisib; first compound 2.53 µM): 0.816 | relative viability (QS11 + Pictilisib; first compound 8 µM): 0.719 | relative viability (AZ628 + Phenformin; first compound 0.08 µM): 0.479 | relative viability (AZ628 + Phenformin; first compound 0.253 µM): 0.4 | relative viability (AZ628 + Phenformin; first compound 0.8 µM): 0.366 | relative viability (AZ628 + Phenformin; first compound 2.53 µM): 0.417 | relative viability (AZ628 + Phenformin; first compound 8 µM): 0.224 | relative viability (AZ628 + Decitabine; first compound 0.08 µM): 0.633 | relative viability (AZ628 + Decitabine; first compound 0.253 µM): 0.521 | relative viability (AZ628 + Decitabine; first compound 0.8 µM): 0.426 | relative viability (AZ628 + Decitabine; first compound 2.53 µM): 0.481 | relative viability (AZ628 + Decitabine; first compound 8 µM): 0.29
